The CATMoS acute toxicity set (Mansouri et al. 2021)

Assay: GHS categories as the set defines them, by LD50: 1 up to 5, 2 up to 50, 3 up to 300, 4 up to 2000, 5 above 2000 mg/kg
Conditions: rat; in vivo; po

CC1CCC2C(C)(C)C3CC12CC1OC13C (stereo not given)
GHS category: 5

CC(C)Cc1ccc2cc(CC(=O)O)ccc2c1
GHS category: 4

C=CCCCCCCCC(=O)N(C)C
GHS category: 4

CO[Si](C)(C)CCl
GHS category: 4

CC(C)=CCC/C(C)=C/COCC=O
GHS category: 5

O=C1C=CC=CC1=CNc1ccccc1C(=O)O
GHS category: 4

Nc1cc(Cl)c(Cl)cc1Cl
GHS category: 5

O=C1Cc2ccccc2O1
GHS category: 5

Oc1cn2c(n1)Nc1ccc(Cl)c(Cl)c1C2
GHS category: 4

O=C1CCc2c(OCC(O)CN3CCC(Cc4ccccc4)CC3)ccc(Br)c2N1 (stereo not given)
GHS category: 4

O=C1OC(=O)c2c(Cl)c(Cl)c(Cl)c(Cl)c21
GHS category: 5

CC[N+](C)(CC)CCSC1=Nc2ccccc2N=C(c2ccc(Sc3ccccc3)cc2)C1
GHS category: 5

Oc1ccc(C(O)CN2CCN(C(c3ccccc3)c3ccccc3)CC2)cc1 (stereo not given)
GHS category: 5

CCOc1ccc(OC(=O)c2ccccc2OC(N)=O)cc1
GHS category: 5

NC(=O)CC1(CC(=O)O)CCCCC1
GHS category: 5

N#Cc1c[nH]cc1-c1cccc(Cl)c1Cl
GHS category: 5

CNC(=O)Oc1ccc(N(C)C)c(C)c1
GHS category: 2

N#CC(CCc1ccc(Cl)cc1)(Cn1cncn1)c1ccccc1 (stereo not given)
GHS category: 5

C=C[Si](C)(C)O[Si](C)(C)C=C
GHS category: 5

CO[C@]12CC[C@@]3(C[C@@H]1[C@](C)(O)C(C)(C)C)[C@H]1Cc4ccc(O)c5c4[C@@]3(CCN1CC1CC1)[C@H]2O5
GHS category: 4

CCCCCCCC(=O)OCCC(C)O (stereo not given)
GHS category: 2

CCCCCCCCCCCC(=O)OC
GHS category: 5

O=C1OCCN1N=Cc1c(N2CCCCCC2)nc2ccccn2c1=O
GHS category: 4

CCCC(=O)c1ccc2c(c1)OC(C)(C)C(=O)N2C
GHS category: 5

CC1(C)COC(Cn2ccnc2)(c2cc3ccccc3o2)OC1
GHS category: 4

O=C1CN=C(c2ccccc2Cl)c2cc([N+](=O)[O-])ccc2N1
GHS category: 5

O=C(O)CC[C@@H](C(=O)O)N(CC(=O)O)CC(=O)O
GHS category: 5

CC(C)CCC[C@@H](C)[C@H]1CC[C@H]2[C@@H]3CC[C@H]4C[C@H](O)CC[C@]4(C)[C@H]3CC[C@]12C
GHS category: 4

NC[C@H]1O[C@H](O[C@H]2[C@H](O[C@@H]3O[C@H](CO)[C@@H](O)[C@H]3O)C(O)[C@H](N)C[C@@H]2N)[C@H](N)[C@@H](O)[C@@H]1O (stereo not given in full)
GHS category: 5

N[C@@H](CC(=O)O)C(=O)O
GHS category: 5

CCOC(=O)C1OC1C(=O)NC(CC(C)C)C(=O)NCCC(C)C (stereo not given)
GHS category: 5

COc1ccc(C[C@](C)(NC(N)=O)C(=O)O)cc1OC
GHS category: 5

Cc1cccc(C)c1N(CCCC(=O)O)C(=O)c1ccccc1Cl
GHS category: 5

CC1(C)Oc2cc(C(=O)c3ccccc3)ccc2NC1=O
GHS category: 5

NCCCC[C@H](N[C@@H](CCc1ccccc1)C(=O)O)C(=O)N1CCC[C@H]1C(=O)O
GHS category: 5

Cc1cc(C)c(O)c(-c2cc(C)cc(C)c2O)c1
GHS category: 5

CCCc1nc2c(C)cc(-c3nc4ccccc4n3C)cc2n1Cc1ccc(-c2ccccc2C#N)cc1
GHS category: 5

c1ccc2oc(-c3ccc(-c4nc5ccccc5o4)s3)nc2c1
GHS category: 5

CCCC(=O)O[C@]1(C(=O)COC(C)=O)CC[C@H]2[C@@H]3C[C@H](F)C4=CC(=O)C=C[C@]4(C)[C@@]3(F)[C@@H](O)C[C@@]21C
GHS category: 5

CCCC(=O)O[C@]1(C(=O)CCl)[C@@H](C)C[C@H]2[C@@H]3CCC4=CC(=O)C=C[C@]4(C)[C@@]3(F)C(=O)C[C@@]21C
GHS category: 5

O=c1cc[nH]c(=O)[nH]1
GHS category: 5

COc1ccccc1C1C(Cl)C(=O)N1NC(=O)c1ccccc1O (stereo not given)
GHS category: 5

C=C(C)C(=O)OCCOC(=O)CC(C)=O
GHS category: 5

CCOC(=O)C(=O)Nc1cc(OCCOC)nc(C)n1
GHS category: 4

CC(=O)Nc1ccccc1CCNC(=O)c1ccc2ccccc2c1O
GHS category: 5

O=C(O)C1CNC1
GHS category: 5

CCC(C)(CCC(C)C)C(=O)OCC1CO1 (stereo not given)
GHS category: 5

Cn1cc(-c2ccccc2)c(=O)c(-c2cccc(C(F)(F)F)c2)c1
GHS category: 5

COc1cc([N+](=O)[O-])c(OC)cc1Cl
GHS category: 5

COc1cc(C=CC(=O)CC(=O)C=Cc2ccc(O)c(OC)c2)ccc1O
GHS category: 5

CN1c2c(oc(=NC3CCCCC3)n(C3CCCCC3)c2=O)-c2sc(Cl)cc2S1(=O)=O
GHS category: 2

CCOC(=O)c1c(CSc2ccccc2)n(C)c2cc(Br)c(O)c(CN(C)C)c12
GHS category: 5

Nc1nc(=O)c(Br)c(-c2ccccc2)[nH]1
GHS category: 5

COC1=C(OC)C(=O)C(CC=C(C)CCC=C(C)CCC=C(C)CCC=C(C)CCC=C(C)CCC=C(C)CCC=C(C)CCC=C(C)CCC=C(C)C)=C(C)C1=O
GHS category: 5

CC(C)c1ccc(C(C)(C)C(C)(C)c2ccc(C(C)C)cc2)cc1
GHS category: 5

CCCCCCCCCCCCCCCCCCSSCCCCCCCCCCCCCCCCCC
GHS category: 5

CON=C(C(=O)OC)c1ccccc1CON=C(C)c1cccc(C(F)(F)F)c1
GHS category: 5

CCCCCCC(C)O (stereo not given)
GHS category: 5

Clc1ccc2oc(C3(Cn4cncn4)OCCCO3)cc2c1
GHS category: 4

C#CCN1C(=O)COc2cc(F)c(N3C(=O)C4=C(CCCC4)C3=O)cc21
GHS category: 5

CCCCCCCCCCCCCCOC(=O)CCCCCCCCCCCCC
GHS category: 5

CC1CCCCC1
GHS category: 5

O=C1c2c(Cl)c(Cl)c(Cl)c(Cl)c2C2=Nc3cccc4cccc(c34)N12
GHS category: 5

CCC(=O)OC/C=C(/C)CCC=C(C)C
GHS category: 5

CCCCC(CC)COC(=O)c1ccc(Nc2nc(Nc3ccc(C(=O)NC(C)(C)C)cc3)nc(Nc3ccc(C(=O)OCC(CC)CCCC)cc3)n2)cc1 (stereo not given)
GHS category: 5

Cc1ccc(C(=O)c2cc(O)c(O)c([N+](=O)[O-])c2)cc1
GHS category: 5

NC(=O)[C@@H]1CCCN1C(=O)[C@H](Cc1cnc[nH]1)NC(=O)[C@@H]1CCC(=O)N1
GHS category: 5

CC(C)CCC1CCC(O)CC1 (stereo not given)
GHS category: 5

CC(C)C(O)C(C)(C)CO (stereo not given)
GHS category: 5

C=C1[C@H]2CC[C@@H]3[C@H]2C(C)(C)CCC[C@]13C
GHS category: 5

FC(C(F)C(F)(F)C(F)(F)F)C(F)(F)F (stereo not given)
GHS category: 5

O=C(Nc1cc(Cl)c(Cl)cc1Cl)c1cc(Cl)cc(-c2ccccc2)c1O
GHS category: 5

C[C@]12CC[C@H](O)CC1=CC[C@@H]1[C@@H]2CC[C@]2(C)C(=O)CC[C@@H]12
GHS category: 5

O=C(O)c1nc(C(Cl)(Cl)Cl)n(-c2ccc(Cl)cc2Cl)n1
GHS category: 5

NC(=S)NS(=O)(=O)c1ccc(N)cc1
GHS category: 5

CCCCC1C(=O)N(c2ccccc2)N(c2ccc(S(C)(=O)=O)cc2)C1=O (stereo not given)
GHS category: 4

Nc1nc(=O)c2c([nH]1)NCC(CNc1ccc(C(=O)N[C@@H](CCC(=O)O)C(=O)O)cc1)N2C=O (stereo not given in full)
GHS category: 5

CCCc1nc2ccnn2c(N2CCOCC2)c1Cc1ccc(-c2ccccc2-c2nn[nH]n2)cc1
GHS category: 4

CC(C)CCCCCC(=O)NCCCCCC(=O)O
GHS category: 5

CC(C)CCCC1CCC(C)(C(=O)O)CC1 (stereo not given)
GHS category: 5

Fc1ccc(N/C(=N/C2CCCCC2)c2ccccc2)cc1
GHS category: 5

OC1(c2ccc(Cl)c(Cl)c2)c2ccccc2C2=NCCCN21 (stereo not given)
GHS category: 4

CN(C)CCCOc1nn(-c2cccc(C(F)(F)F)c2)c2ncccc12
GHS category: 4

C[C@@H]1[C@@H](c2ccc(Cl)cc2)SC(=O)N1C(=O)NC1CCCCC1 (single isomer, unassigned)
GHS category: 5

C=CC(C)(O)CC/C=C(\C)CC/C=C(\C)CCC=C(C)C (stereo not given)
GHS category: 5

Nc1ncnc2c1ncn2[C@@H]1O[C@H](COP(=O)(O)OP(=O)(O)OP(=O)(O)O)[C@@H](O)[C@H]1O
GHS category: 5

O=C1NC(=O)c2ccc3c4cccc5cccc(c6ccc1c2c63)c54
GHS category: 5

CC1CNCCN1SC=S (stereo not given)
GHS category: 5

CCC(=O)NP(=O)(OC)SC (stereo not given)
GHS category: 4

O=C1CCCCCN1SSN1CCCCCC1=O
GHS category: 5

CC(c1ccc(O)cc1)(c1ccc(O)cc1)c1ccc(O)cc1
GHS category: 5

C[C@H]1C[C@@H]2[C@H]([C@@H](O)C[C@@]3(C)[C@H]2CC[C@]3(O)C(=O)CO)[C@@]2(C)C=CC(=O)C=C12
GHS category: 5

NS(=O)(=O)c1cc(C2(O)NC(=O)c3ccccc32)ccc1Cl (stereo not given)
GHS category: 5

CCOC(=O)C(=O)Nc1cc(SC)nc(C)n1
GHS category: 4

COc1ccc2[nH]c(C)c(CC(=O)OCC(=O)O)c2c1
GHS category: 5

CC1(C)O[C@@H]2C[C@H]3[C@@H]4C[C@H](F)C5=CC(=O)C=C[C@]5(C)[C@@]4(F)[C@@H](O)C[C@]3(C)[C@]2(C(=O)CO)O1
GHS category: 5

Nc1c(I)c(C(=O)O)c(I)c(C(=O)O)c1I
GHS category: 5

Cc1cc2[nH]c(=O)[nH]c2cc1N=NC1C(=O)NC(=O)NC1=O
GHS category: 5

CC(=O)OC(C)c1ccccc1 (racemic)
GHS category: 5

CCCCOc1ccc(-c2ccc(C#N)cc2)cc1
GHS category: 5

CCOC(=O)C1(OC(=O)Cc2ccc(Cl)cc2Cl)CCCCC1
GHS category: 5

Nc1ccc2cc(S(=O)(=O)O)c(/N=N/c3ccc(-c4ccc(/N=N/c5ccc(O)c(C(=O)O)c5)cc4)cc3)c(O)c2c1
GHS category: 5

COC(=O)c1ccccc1S(=O)(=O)NC(=O)Nc1nc(OC(F)F)cc(OC(F)F)n1
GHS category: 5

Nc1ccn([C@@H]2O[C@H](CO)[C@@H](O)[C@@H]2O)c(=O)n1
GHS category: 5

CCCOC(C)OCCC
GHS category: 5

O=C=Nc1cc(Cl)cc(Cl)c1
GHS category: 5

CC1CC2(CC(C)OC2=O)C(=O)O1 (stereo not given)
GHS category: 5

CCCCC1C=C(C)CC(C)O1 (stereo not given)
GHS category: 5

CCCCCCCCCCCCCCCCCNP1(=S)OCc2cc([N+](=O)[O-])ccc2O1 (stereo not given)
GHS category: 3

O=S(=O)(CCl)c1ccc(Br)cc1
GHS category: 5

CCOC(=O)C(=O)Nc1nc(-c2ccc(OC)cc2)cs1
GHS category: 5

C/C=C(\C)C(=O)OC/C=C(\C)CCC=C(C)C
GHS category: 5

OC1C(Cl)(Cl)C(=C(Cl)Cl)C(O)(C(Cl)Cl)C1(Cl)Cl (stereo not given)
GHS category: 4

CCCCCCBr
GHS category: 5

COc1ccccc1N1CCN(/C(N)=N/c2ccc(Cl)c(Cl)c2)CC1
GHS category: 4
